The target of one assay is T1, OleT (Jeotgalicoccus sp. ATCC 8456, UniProt E9NSU2).
T1 sequence (E9NSU2 1-422): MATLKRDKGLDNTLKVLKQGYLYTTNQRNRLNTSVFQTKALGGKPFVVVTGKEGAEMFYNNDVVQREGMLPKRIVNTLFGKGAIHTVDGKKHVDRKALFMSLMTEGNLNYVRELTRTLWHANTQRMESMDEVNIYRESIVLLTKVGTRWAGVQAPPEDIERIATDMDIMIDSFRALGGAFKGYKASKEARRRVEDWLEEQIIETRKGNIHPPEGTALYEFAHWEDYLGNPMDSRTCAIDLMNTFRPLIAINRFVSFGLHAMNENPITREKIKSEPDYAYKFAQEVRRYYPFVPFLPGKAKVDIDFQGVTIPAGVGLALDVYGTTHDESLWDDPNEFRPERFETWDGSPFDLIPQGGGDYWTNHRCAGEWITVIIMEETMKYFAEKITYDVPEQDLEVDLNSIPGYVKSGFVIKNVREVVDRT
The assay can be described thus: 1-undecene production, total turnover. It is filed as biochemical. To be noted: CamAB redox partner system.

The target in a further assay is T2, UndA (Pseudomonas putida, UniProt A5W7G6).
T2 sequence (A5W7G6 1-271): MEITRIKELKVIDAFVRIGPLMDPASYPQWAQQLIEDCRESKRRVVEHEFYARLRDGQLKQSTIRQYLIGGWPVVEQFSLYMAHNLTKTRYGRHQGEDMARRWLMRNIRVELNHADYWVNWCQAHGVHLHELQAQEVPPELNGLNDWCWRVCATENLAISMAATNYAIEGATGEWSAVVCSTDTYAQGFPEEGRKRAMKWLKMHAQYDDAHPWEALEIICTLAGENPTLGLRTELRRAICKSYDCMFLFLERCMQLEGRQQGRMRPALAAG
The assay can be described thus: 1-undecene production, total turnover. It is filed as biochemical. To be noted: optimal conditions of UndA; details in supplement.

Regarding `CCCCCCCCCCCC(=O)O` [compound 5, lauric acid], the “1-undecene production, total turnover” value on OleT is “UndB, OleT, and OleT-AldO showed substantial 1-undecene production (fig. S6)”; at UndA it was “While UndA exhibited poor activity”.

These data come from article PMC11204201 (Science Advances, 2024).
